Literature values in patent publication US20180368457A1 (Petiva Private Limited, priority 2015, published 2018).

Experiments:
[1] = storage temperature 25° C., relative humidity approximately 85%
[2] = in vivo
[3] = intravenously administered, within 6 hours of treatment

Row | water pick-up on storage [1] | SMILES | glycemic index, in words [2] | excreted in the urine [3] | solubility
1 | No significant water pick-up | OCC1O[C@H](OC[C@H]2O[C@](O)(CO)C(O)C2O)C(O)C(O)[C@@H]1O (stereo partly shown) [isomaltulose, Isomaltulose] | very low GI | – | –
2 | – | O=C(CO)[C@H](O)[C@H](O)[C@H](O)CO [allulose, D-Psicose] | low glycemic index | approximately 98% | high solubility
3 | – | OC[C@H]1O[C@](O)(CO[C@H]2O[C@H](CO)[C@@H](O)[C@H](O)[C@H]2O)[C@@H](O)[C@@H]1O [trehalulose, 1-O-α-D-glucopyranosyl-β-D-fructofuranose] | less glycemic | – | more soluble in water than its structural isomers sucrose
